Source: patent US20220218852A1, “NOVEL RADIOLABELLED CXCR4-TARGETING COMPOUNDS FOR DIAGNOSIS AND THERAPY” (PROVINCIAL HEALTH SERVICES AUTHORITY, priority 2019, published 2022)
Like-named read-outs stand apart in the source and are kept apart here. Positions of bridges follow the written chain, without caps; N, C: chain ends. Non-standard residues stand in square brackets, D forms with d. Residues, ends and D or L forms follow the SMILES beside them. Groups on a side chain read outwards from the residue. *: point of attachment. DOTA = O=C(O)CN1CCN(CC(=O)O)CCN(CC(=O)*)CCN(CC(=O)O)CC1; 2Nal = N[C@@H](Cc1ccc2ccccc2c1)C(=O)O; Lys(iPr) = CC(C)NCCCC[C@H](N)C(=O)O

Columns and labels:
[1] = Biodistribution in GRANTA519 tumor-bearing mice; format: in vivo; conditions: male, NOD.Cg-Rag1^tm1MomII2rg^tm1Wjl/SzJ (NRG), mouse, iv, total radioactivity
Procedure: (§1) For Daudi, Z138, GRANTA519 and Jeko1 xenografts, male NOD.Cg-Rag1^tm1MomII2rg^tm1Wjl/SzJ (NRG) mice were subcutaneously inoculated on the left flank with 5×10^6 cells (100 μL; 1:1 ratio of PBS/Matrigel) and tumors were grown to a size of 200-500 mm^3. For PC-3 xenografts, male NOD.Cg-Rag1^tm1MomII2rg^tm1Wjl/SzJ (NRG) mice were subcutaneously inoculated on the left flank with 5×10^6 PC-3 cells (100 μL; 1:1 ratio of PBS/Matrigel) and tumors were grown to a size of 200-400 mm^3.
(§2) The mice were euthanized via CO2 inhalation while anesthetized with isoflurane. Tissues were harvested, washed in PBS, blotted dry, weighed, and measured on a Hidex AMG Automatic Gamma Counter.

[2] = tested on: GRANTA519 mantle cell lymphoma xenografts; assay: Biodistribution in GRANTA519 tumor-bearing mice; format: in vivo
Procedure: as §1, §2

[3] = GRANTA519 tumour, read-out: Biodistribution GRANTA519 (tumour)
[4] = adrenals, read-out: Biodistribution Adrenals
[5] = bone, read-out: Biodistribution Bone
[6] = fat, read-out: Biodistribution Fat
[7] = intestine, read-out: Biodistribution Intestine
[8] = kidney, read-out: Biodistribution Kidney
[9] = liver, read-out: Biodistribution Liver
[10] = lung, read-out: Biodistribution Lung
[11] = muscle, read-out: Biodistribution Muscle
[12] = pancreas, read-out: Biodistribution Pancreas
[13] = spleen, read-out: Biodistribution Spleen
[14] = stomach, read-out: Biodistribution Stomach
[15] = testes, read-out: Biodistribution Testes
[16] = whole blood, read-out: Biodistribution Blood

Molecule `CC(C)NCCCC[C@@H]1NC(=O)[C@H](Cc2ccc(O)cc2)NC(=O)[C@H](Cc2ccccc2)NC(=O)CC[C@H](C(=O)N[C@@H](CCCCNC(C)C)C(=O)N[C@@H](CCCCNC(=O)[C@H](CCC(=O)O)NC(=O)[C@H](CCC(=O)O)NC(=O)[C@H](CCC(=O)O)NC(=O)CN2CCN(CC(=O)O)CCN(CC(=O)O)CCN(CC(=O)O)CC2)C(N)=O)NC(=O)CNC(=O)[C@H](Cc2ccc3ccccc3c2)NC(=O)[C@@H](CCCNC(=N)N)NC1=O` [[^177Lu]Lu-BL02, metal not drawn] (FY[Lys(iPr)][dR][2Nal]G[dE][Lys(iPr)]K([Glu-Glu-Glu-DOTA])-NH2; lactam N-7) has a tissue uptake at 1 h ([1]; GRANTA519 tumour, 1 h, read-out: Biodistribution GRANTA519 (tumour)) of 6.83 %ID/g, a tissue uptake at 1 h ([1]; GRANTA519 tumour, 1 h blocked, read-out: Biodistribution GRANTA519 (tumour)) of 0.84 %ID/g and a tissue uptake at 4 h [1, 3] of 3.22 %ID/g. It also gave a tissue uptake at 24 h [1, 3] of 1.09 %ID/g, a tissue uptake at 72 h [1, 3] of 0.353 %ID/g and a tissue uptake at 1 h ([1]; adrenals, 1 h, read-out: Biodistribution Adrenals) of 0.39 %ID/g. It also gave a tissue uptake at 1 h ([1]; adrenals, 1 h blocked, read-out: Biodistribution Adrenals) of 0.48 %ID/g, a tissue uptake at 4 h [1, 4] of 0.1 %ID/g and a tissue uptake at 24 h [1, 4] of 0.094 %ID/g. It also gave a tissue uptake at 72 h [1, 4] of 0.346 %ID/g, a tissue uptake at 1 h ([1]; bone, 1 h, read-out: Biodistribution Bone) of 0.24 %ID/g and a tissue uptake at 4 h [1, 5] of 0.09 %ID/g. For the same molecule, the tissue uptake at 24 h [1, 5] was 0.09 %ID/g, the tissue uptake at 72 h [1, 5] was 0.061 %ID/g and the tissue uptake at 1 h ([1]; bone, 1 h blocked, read-out: Biodistribution Bone) was 0.41 %ID/g. It also gave a tissue uptake at 1 h ([1]; fat, 1 h, read-out: Biodistribution Fat) of 0.08 %ID/g, a tissue uptake at 4 h [1, 6] of 0.01 %ID/g and a tissue uptake at 24 h [1, 6] of 0.008 %ID/g. For the same molecule, the tissue uptake at 72 h [1, 6] was 0.006 %ID/g, the tissue uptake at 1 h ([1]; fat, with LY2510924 7.5 μg i.p. 15 min before radiotracer, 1 h blocked, read-out: Biodistribution Fat) was 0.16 %ID/g and the tissue uptake at 1 h ([1]; heart, 1 h, read-out: Biodistribution Heart) was 0.19 %ID/g. The tissue uptake at 1 h ([1]; heart, 1 h blocked, read-out: Biodistribution Heart) was 0.4 %ID/g, the tissue uptake at 24 h ([1]; heart, read-out: Biodistribution Heart) was 0.034 %ID/g and the tissue uptake at 1 h ([1]; intestine, 1 h, read-out: Biodistribution Intestine) was 0.28 %ID/g. The tissue uptake at 1 h ([1]; intestine, 1 h blocked, read-out: Biodistribution Intestine) was 0.58 %ID/g, the tissue uptake at 24 h [1, 7] was 0.046 %ID/g and the tissue uptake at 72 h [1, 7] was 0.017 %ID/g. It also gave a tissue uptake at 1 h ([1]; kidney, 1 h, read-out: Biodistribution Kidney) of 3.91 %ID/g, a tissue uptake at 1 h ([1]; kidney, 1 h blocked, read-out: Biodistribution Kidney) of 8.63 %ID/g and a tissue uptake at 4 h [1, 8] of 2.98 %ID/g. The tissue uptake at 24 h [1, 8] was 1.33 %ID/g, the tissue uptake at 72 h [1, 8] was 0.573 %ID/g and the tissue uptake at 1 h ([1]; liver, 1 h, read-out: Biodistribution Liver) was 0.96 %ID/g. The tissue uptake at 4 h [1, 9] was 0.87 %ID/g, the tissue uptake at 24 h [1, 9] was 0.635 %ID/g and the tissue uptake at 72 h [1, 9] was 0.413 %ID/g. The tissue uptake at 1 h ([1]; liver, with LY2510924 7.5 μg i.p. 15 min before radiotracer, 1 h blocked, read-out: Biodistribution Liver) was 1.07 %ID/g, the tissue uptake at 1 h ([1]; lung, 1 h, read-out: Biodistribution Lung) was 0.77 %ID/g and the tissue uptake at 1 h ([1]; lung, 1 h blocked, read-out: Biodistribution Lung) was 1.16 %ID/g. For the same molecule, the tissue uptake at 4 h [1, 10] was 0.27 %ID/g, the tissue uptake at 24 h [1, 10] was 0.117 %ID/g and the tissue uptake at 72 h [1, 10] was 0.06 %ID/g. For the same molecule, the tissue uptake at 1 h ([1]; muscle, 1 h, read-out: Biodistribution Muscle) was 0.13 %ID/g, the tissue uptake at 1 h ([1]; muscle, 1 h blocked, read-out: Biodistribution Muscle) was 0.34 %ID/g and the tissue uptake at 4 h [1, 11] was 0.04 %ID/g. For the same molecule, the tissue uptake at 24 h [1, 11] was 0.015 %ID/g, the tissue uptake at 72 h [1, 11] was 0.007 %ID/g and the tissue uptake at 1 h ([1]; pancreas, 1 h, read-out: Biodistribution Pancreas) was 0.17 %ID/g. For the same molecule, the tissue uptake at 24 h [1, 12] was 0.028 %ID/g, the tissue uptake at 72 h [1, 12] was 0.015 %ID/g and the tissue uptake at 1 h ([1]; pancreas, with LY2510924 7.5 μg i.p. 15 min before radiotracer, 1 h blocked, read-out: Biodistribution Pancreas) was 0.3 %ID/g. For the same molecule, the tissue uptake at 1 h ([1]; spleen, 1 h, read-out: Biodistribution Spleen) was 0.49 %ID/g, the tissue uptake at 4 h [1, 13] was 0.28 %ID/g and the tissue uptake at 24 h [1, 13] was 0.321 %ID/g. It also gave a tissue uptake at 72 h [1, 13] of 0.198 %ID/g, a tissue uptake at 1 h ([1]; spleen, with LY2510924 7.5 μg i.p. 15 min before radiotracer, 1 h blocked, read-out: Biodistribution Spleen) of 0.48 %ID/g and a tissue uptake at 1 h ([1]; stomach, 1 h, read-out: Biodistribution Stomach) of 0.1 %ID/g. For the same molecule, the tissue uptake at 4 h [1, 14] was 0.05 %ID/g, the tissue uptake at 24 h [1, 14] was 0.206 %ID/g and the tissue uptake at 72 h [1, 14] was 0.021 %ID/g. The tissue uptake at 1 h ([1]; stomach, with LY2510924 7.5 μg i.p. 15 min before radiotracer, 1 h blocked, read-out: Biodistribution Stomach) was 0.19 %ID/g, the tissue uptake at 1 h ([1]; testes, 1 h, read-out: Biodistribution Testes) was 0.21 %ID/g and the tissue uptake at 1 h ([1]; testes, 1 h blocked, read-out: Biodistribution Testes) was 0.32 %ID/g. It also gave a tissue uptake at 24 h [1, 15] of 0.034 %ID/g, a tissue uptake at 72 h [1, 15] of 0.034 %ID/g and a tissue uptake at 1 h ([1]; whole blood, 1 h, read-out: Biodistribution Blood) of 0.5 %ID/g. The tissue uptake at 4 h [1, 16] was 0.02 %ID/g, the tissue uptake at 24 h [1, 16] was 0.006 %ID/g and the tissue uptake at 72 h [1, 16] was 0.002 %ID/g. The tissue uptake at 1 h ([1]; whole blood, with LY2510924 7.5 μg i.p. 15 min before radiotracer, 1 h blocked, read-out: Biodistribution Blood) was 1.14 %ID/g, the “Ratio Tumour:Blood” value ([2]; 1 h) was 14.18 and the “Ratio Tumour:Bone” value ([2]; 1 h) was 28.95. The “Ratio Tumour:Liver” value ([2]; 1 h) was 7.10, the “Ratio Tumour:Lung” value ([2]; 1 h) was 9.08 and the “Ratio Tumour:Muscle” value ([2]; 1 h) was 56.86. For the same molecule, the “Ratio Tumour:Spleen” value ([2]; 1 h) was 14.20, the “Ratio Tumour:Blood” value ([2]; 1 h blocked) was 0.77 and the “Ratio Tumour:Bone” value ([2]; 1 h blocked) was 2.16. For the same molecule, the “Ratio Tumour:Liver” value ([2]; 1 h blocked) was 0.78, the “Ratio Tumour:Lung” value ([2]; 1 h blocked) was 0.74 and the “Ratio Tumour:Muscle” value ([2]; 1 h blocked) was 3.18. For the same molecule, the “Ratio Tumour:Spleen” value ([2]; 1 h blocked) was 1.77, the “Ratio Tumour:Blood” value ([2]; 4 h) was 119.44 and the “Ratio Tumour:Bone” value ([2]; 4 h) was 34.26. The “Ratio Tumour:Liver” value ([2]; 4 h) was 3.75, the “Ratio Tumour:Lung” value ([2]; 4 h) was 12.56 and the “Ratio Tumour:Muscle” value ([2]; 4 h) was 90.57. For the same molecule, the “Ratio Tumour:Spleen” value ([2]; 4 h) was 11.98, the “Ratio Tumour:Blood” value ([2]; 24 h) was 206.07 and the “Ratio Tumour:Bone” value ([2]; 24 h) was 12.33. The “Ratio Tumour:Liver” value ([2]; 24 h) was 1.72, the “Ratio Tumour:Lung” value ([2]; 24 h) was 9.91 and the “Ratio Tumour:Muscle” value ([2]; 24 h) was 76.90. For the same molecule, the “Ratio Tumour:Spleen” value ([2]; 24 h) was 3.78, the “Ratio Tumour:Blood” value ([2]; 72 h) was 126.69 and the “Ratio Tumour:Bone” value ([2]; 72 h) was 5.88. The “Ratio Tumour:Liver” value ([2]; 72 h) was 0.86, the “Ratio Tumour:Lung” value ([2]; 72 h) was 6.60 and the “Ratio Tumour:Muscle” value ([2]; 72 h) was 50.64. The “Ratio Tumour:Spleen” value ([2]; 72 h) was 1.53.
